Assays:
[1] = biological target: T1, cTnC isolated from cattle cardiac muscle (Bos taurus, UniProt P63315); assay: Affinity of Ca^2+ to cTnC by fluorescent probe dansyl chloride labeling; assay type: binding; conditions: for Influence on the affinity curve of cTnC to Ca^2+: 50 μmol/L; for Effect on the cTnC-Ca^2+ affinity curve: 55 μmol/L (FIG. 4)
T1 construct: cTnC isolated from cattle cardiac muscle; from tissue; host or cells: cattle cardiac muscle
Text: The effect of PPTA-I on the affinity of Ca^2+ to cTnC isolated from cattle cardiac muscle was studied by fluorescent probe dansyl chloride labeling to discuss the calcium sensitization mechanisms of piperphentonamine hydrochloride, and compared the results to the already known calcium sensitizers MCI-154 and sulmazole (Sul).

[2] = test system: myocardial ischemia-reperfusion injury in cats; assay: Myocardial ischemia-reperfusion injury in cats in vivo (coronary artery arrest 30 min, reperfusion 60 min); set-up: species or system cat; conditions: 1.3 mg/kg
Procedure: In order to further evaluate the protective effect of PPTA on myocardium injured by ischemia-reperfusion, a pathological model of myocardial ischemia-reperfusion injury in cats in vivo was established by arrest the coronary artery for 30 min, then reperfusion for 60 min, studying the effects on blood biochemistry, myocardium ultrastructure, etc.

[3] = test system: cat heart failure model induced by verapamil; assay: Cardiac hemodynamic parameters in cat heart failure model induced by verapamil, intravenous administration; assay type: in vivo; conditions: 0.1 mg/kg; for +dP/dt max, Change, % / Cardiac contractility, Change % / HR, Change % / LVEDP, Change, % / LVSP, Change, % / MAP, Change % / −dP/dt max, Change, %: vs. baseline
Procedure: To study the therapeutic effect of the novel cardiotonic and vasodilator PPTA-I on heart failure, the cardiac hemodynamic parameters were determined by a polygraph in cat heart failure model induced by verapamil.

[4] = Solubility and stability of piperphentonamine hydrochloride in water for injection; assay type: physicochemical
Text: Piperphentonamine hydrochloride with the molecular formula C21H23NO4.HCl has a molecular weight of […], batch No. 2001803, provided by Guangzhou Zhongwei Biotechnology Ltd Company. Its preparation method is described in Chinese patent No. 02125318.8. […] In order to achieve the lyophilized powder for injection with good redissolving ability and stability, piperphentonamine hydrochloride and excipient need to be dissolved in water for injection with pH 1.5 to 5.5 and then lyophilized, especially preferred water for injection with pH 2 to 3.

[5] = conventionally known; cited from earlier work
[6] = treated by sonication and heating

O=C1CCC(c2ccc(Nc3ccncc3)cc2)=NN1 [MCI-154]
Influence on the affinity curve of cTnC to Ca^2+ [1]: no significant influence
Effect on the cTnC-Ca^2+ affinity curve [1]: no significant effect

COc1ccc(CCN(C)CCCC(C#N)(c2ccc(OC)c(OC)c2)C(C)C)cc1OC (stereo not drawn) [verapamil]
Score of myocardium pathological change ([2]; injury control 2.5 ± 0.55): 1.3 ± 0.18
Content of cTnI ([2]; serum, injury control 2.3 ± 0.62): 1.4 ± 0.21
Content of MDA ([2]; serum, injury control 86 ± 17): 65 ± 12 nmol/L
CPK activity ([2]; serum, injury control 385 ± 75): 271 ± 80

Cc1[nH]c(=O)c(C#N)cc1-c1ccncc1 [Milrinone]
+dP/dt max increased by at most [3]: 61±26%
Effect on HRs [3]: did not affect
Effect on LVSP, LVEDP and −dP/dt max [3]: without changing
MAP decreased by [3]: 10%
Period of +dP/dt max increase [3]: over 20 minutes
Period of the effect on MAP and cardiac contractility [3]: 5 min
+dP/dt max, Change, % ([3]; 2 min): 18 ± 23 %
Cardiac contractility, Change % ([3]; 2 min): 38 ± 32 # %
HR, Change % ([3]; 2 min): 0 ± 5%
LVEDP, Change, % ([3]; 2 min): 1 ± 2%
LVSP, Change, % ([3]; 2 min): 4 ± 11%
MAP, Change % ([3]; 2 min): −4 ± 4 %
−dP/dt max, Change, % ([3]; 2 min): 0 ± 23%
+dP/dt max, Change, % ([3]; 5 min): 52 ± 24 ### %
Cardiac contractility, Change % ([3]; 5 min): 92 ± 80 # %
HR, Change % ([3]; 5 min): 2 ± 15%
LVEDP, Change, % ([3]; 5 min): 5 ± 16%
LVSP, Change, % ([3]; 5 min): 5 ± 15%
MAP, Change % ([3]; 5 min): −10 ± 8 # %
−dP/dt max, Change, % ([3]; 5 min): 3 ± 19%
+dP/dt max, Change, % ([3]; 10 min): 61 ± 26 ### %
Cardiac contractility, Change % ([3]; 10 min): 71 ± 78 %
HR, Change % ([3]; 10 min): 2 ± 16%
LVEDP, Change, % ([3]; 10 min): −1 ± 5%
LVSP, Change, % ([3]; 10 min): 6 ± 17%
MAP, Change % ([3]; 10 min): −10 ± 6 ## %
−dP/dt max, Change, % ([3]; 10 min): 11 ± 20%
+dP/dt max, Change, % ([3]; 15 min): 54 ± 33 ## %
Cardiac contractility, Change % ([3]; 15 min): 58 ± 74 %
HR, Change % ([3]; 15 min): 3 ± 16%
LVEDP, Change, % ([3]; 15 min): −7 ± 16%
LVSP, Change, % ([3]; 15 min): 3 ± 18%
MAP, Change % ([3]; 15 min): −10 ± 8 # %
−dP/dt max, Change, % ([3]; 15 min): 8 ± 23%
+dP/dt max, Change, % ([3]; 20 min): 61 ± 45 # %
Cardiac contractility, Change % ([3]; 20 min): 61 ± 69 %
HR, Change % ([3]; 20 min): −13 ± 37%
LVEDP, Change, % ([3]; 20 min): 2 ± 11%
LVSP, Change, % ([3]; 20 min): 4 ± 22%
MAP, Change % ([3]; 20 min): −8 ± 12%
−dP/dt max, Change, % ([3]; 20 min): −4 ± 22%

COc1cc([S+](C)[O-])ccc1-c1nc2ncccc2[nH]1 (stereo not drawn) [Sul, sulmazole]
Influence on the affinity curve of cTnC to Ca^2+ [1]: no significant influence
Effect on the cTnC-Ca^2+ affinity curve [1]: no significant effect

piperphentonamine hydrochloride
Stability in water for injection ([4]; easy to degrade and turn yellow): not stable
Solubility in water for injection with pH 1.5 to 5.5 [4, 6]: easy to be dissolved
pH of water for injection with the best solubility and stability [4, 6]: 2 to 3
Solubility in water for injection ([4]; untreated): difficult to be dissolved
Solubility in water [5]: insoluble or poor soluble in water
Shift of cTnC-Ca^2+ affinity curve ([1]; 15 μmol/L): slightly shifted to the left without statistical significance
Shift of cTnC-Ca^2+ affinity curve ([1]; 35 μmol/L): shifted to the left with statistical significance
Shift of cTnC-Ca^2+ affinity curve to the left compared with the control curve ([1]; 55 μmol/L (FIG. 3)): 0.2 pCa

From patent US8513301B2, “Kind of piperphentonamine hydrochloride lyophilized powder for injection and preparation and use thereof” (Guangzhou Zhongwei Biotechnology Ltd., priority 2007, dated 2013)
